Results taken from ChEMBL document CHEMBL1148571, “Synthesis of 131I-labeled glucose-conjugated inhibitors of O6-methylguanine-DNA methyltransferase (MGMT) and comparison with nonconjugated inhibitors as potential tools for in vivo MGMT imaging” (J Med Chem, 2006).

Molecular target: T1, Methylated-DNA--protein-cysteine methyltransferase (Homo sapiens) (UniProt P16455)
T1 sequence (whole entry): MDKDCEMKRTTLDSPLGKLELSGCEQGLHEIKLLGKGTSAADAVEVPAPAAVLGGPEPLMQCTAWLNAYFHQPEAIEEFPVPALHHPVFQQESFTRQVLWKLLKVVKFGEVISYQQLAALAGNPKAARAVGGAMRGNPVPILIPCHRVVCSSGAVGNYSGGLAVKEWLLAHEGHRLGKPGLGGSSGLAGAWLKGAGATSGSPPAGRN
Assay: Binding to human MGMT
Conditions: tested as the 131I-labelled form

| Structure (SMILES) | Activity |
| --- | --- |
| Nc1nc(OCc2ccc(I)s2)c2[nH]cnc2n1 | 80% |
| Nc1nc(OCc2cccc(I)c2)c2[nH]cnc2n1 | 97% |
